pIC50: −log10 of the molar value.
What was measured:
[1] = target: Serotonin 5-HT1A receptor (Homo sapiens (Human), UniProt P08908); experiment: Competitive binding, 8-OH-DPAT radioligand
Method: (§1) R-55 (which comprises a 3-hydroxyphenyl moiety) and the structurally related compounds N-108 (2-{[4-(2-ethoxyphenyl)piperazin-1-yl]methyl}quinazolin-4(3H)-one) and B-39 (7-chloro-2-((5,6-dihydro-4-(2-methoxyphenyl)pyridin-1(2H)-yl)methyl)quinazolin-4(3H)-one) were assayed for competitive binding to a variety of receptors, including D4.4 type dopamine receptor, in order to assess their specificity for D4.4 dopamine receptors.
(§2) The receptors were expressed as human recombinant proteins in CHO cells, except for adrenergic α1 and α2 receptors which were expressed in Wistar rat brain and cerebral cortex cells, respectively, and melanocortin MC4 receptor which was expressed in human recombinant HEK-293 cells. Binding was determined using the following radioligands in the presence of various concentrations of the tested compound:
1.5 nM 8-OH-DPAT for serotonin 5-HT1A receptor, and
(§3) The binding assays were performed in accordance with procedures described in the literature (Greengrass & Bremner, 1979; Boyajian & Leslie, 1987; Broadhurst, 1988; Lewis, 2001; Sutton, 1995; Dearry, 1990; Zhou, 1990; Grandy, 1989; Hayes, 1992; Sokoloff, 1990; Van Tol, 1991; Van Tol 1992; Sunahara, 1991; Weinshank, 1991; Schioth, 1996; Schioth 1997; Martin & Humphrey, 1994; May, 2003; Wolf & Schutz, 1997).

CRF1 receptor = CRF1 receptor (Homo sapiens (Human), UniProt P34998); experiment: Competitive binding, (Tyr0)-CRF radioligand
CRF1 receptor, sequence (P34998 24-415): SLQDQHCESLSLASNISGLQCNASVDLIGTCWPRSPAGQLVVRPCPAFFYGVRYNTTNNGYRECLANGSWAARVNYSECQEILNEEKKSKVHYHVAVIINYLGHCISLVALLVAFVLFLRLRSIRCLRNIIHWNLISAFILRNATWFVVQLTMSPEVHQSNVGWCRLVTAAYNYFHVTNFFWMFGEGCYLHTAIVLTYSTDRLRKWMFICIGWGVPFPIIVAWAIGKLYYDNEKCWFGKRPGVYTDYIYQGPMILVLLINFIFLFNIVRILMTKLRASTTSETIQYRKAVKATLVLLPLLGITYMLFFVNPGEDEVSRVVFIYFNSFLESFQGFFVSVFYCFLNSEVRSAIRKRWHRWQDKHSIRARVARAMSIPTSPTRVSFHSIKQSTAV
Method: as §1, §2
0.05 nM)(Tyr^0)-corticotropin releasing factor (CRF) for corticotropin releasing factor CRF1 receptor,
as §3

Dopamine D4.4 receptor = Dopamine D4.4 receptor (Homo sapiens (Human), UniProt P21917); experiment: Competitive binding, spiperone radioligand
Dopamine D4.4 receptor, sequence (P21917 whole entry): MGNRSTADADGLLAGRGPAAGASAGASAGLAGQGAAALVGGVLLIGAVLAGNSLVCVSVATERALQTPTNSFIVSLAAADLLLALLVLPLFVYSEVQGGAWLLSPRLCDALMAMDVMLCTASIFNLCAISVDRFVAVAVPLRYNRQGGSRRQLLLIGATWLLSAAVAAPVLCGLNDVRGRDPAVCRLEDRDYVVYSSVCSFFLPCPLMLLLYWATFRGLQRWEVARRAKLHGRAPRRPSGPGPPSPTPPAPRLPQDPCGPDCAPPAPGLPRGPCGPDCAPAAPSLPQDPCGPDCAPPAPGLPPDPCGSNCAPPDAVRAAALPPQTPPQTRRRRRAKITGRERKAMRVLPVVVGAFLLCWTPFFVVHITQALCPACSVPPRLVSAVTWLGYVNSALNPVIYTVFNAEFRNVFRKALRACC
Method: as §1, §2
(§4) 0.16 nM, 0.7 nM and 1.2 nM spiperone, respectively, for dopamine D2S, D3 and D4.4 receptors,
as §3

Dopamine D2S receptor = Dopamine D2S receptor (Homo sapiens (Human), UniProt P14416); experiment: Competitive binding, spiperone radioligand
Dopamine D2S receptor, sequence (P14416 other isoform, or with tags, fused parts or gaps): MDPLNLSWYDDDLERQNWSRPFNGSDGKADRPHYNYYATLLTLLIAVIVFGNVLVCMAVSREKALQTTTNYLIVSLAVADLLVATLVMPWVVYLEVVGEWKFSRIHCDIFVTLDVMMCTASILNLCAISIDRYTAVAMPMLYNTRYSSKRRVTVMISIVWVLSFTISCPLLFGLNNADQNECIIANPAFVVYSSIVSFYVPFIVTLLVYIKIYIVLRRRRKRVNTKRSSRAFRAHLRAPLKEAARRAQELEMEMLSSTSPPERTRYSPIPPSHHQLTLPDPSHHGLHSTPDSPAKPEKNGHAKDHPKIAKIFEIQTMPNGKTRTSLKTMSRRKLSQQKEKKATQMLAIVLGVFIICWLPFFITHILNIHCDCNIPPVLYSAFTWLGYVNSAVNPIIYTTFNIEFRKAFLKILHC
Method: as §1, §2, §4, §3

Dopamine D3 receptor = Dopamine D3 receptor (Homo sapiens (Human), UniProt P35462); experiment: Competitive binding, spiperone radioligand
Dopamine D3 receptor, sequence (P35462 whole entry): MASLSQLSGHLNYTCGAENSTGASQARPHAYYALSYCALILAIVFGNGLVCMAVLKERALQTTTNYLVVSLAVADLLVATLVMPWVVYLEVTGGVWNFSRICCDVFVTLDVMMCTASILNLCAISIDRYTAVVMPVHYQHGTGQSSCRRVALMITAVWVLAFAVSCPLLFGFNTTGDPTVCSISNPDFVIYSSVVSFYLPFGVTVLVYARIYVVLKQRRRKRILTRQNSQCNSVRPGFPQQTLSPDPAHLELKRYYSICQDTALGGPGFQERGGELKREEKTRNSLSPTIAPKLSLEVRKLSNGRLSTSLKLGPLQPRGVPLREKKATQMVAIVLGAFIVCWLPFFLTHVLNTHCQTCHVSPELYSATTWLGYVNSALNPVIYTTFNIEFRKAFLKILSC
Method: as §1, §2, §4, §3

[2] = target: Serotonin 5-HT2C receptor (Homo sapiens (Human), UniProt P28335); experiment: Competitive binding, mesulergine radioligand
Serotonin 5-HT2C receptor, sequence (P28335 33-458): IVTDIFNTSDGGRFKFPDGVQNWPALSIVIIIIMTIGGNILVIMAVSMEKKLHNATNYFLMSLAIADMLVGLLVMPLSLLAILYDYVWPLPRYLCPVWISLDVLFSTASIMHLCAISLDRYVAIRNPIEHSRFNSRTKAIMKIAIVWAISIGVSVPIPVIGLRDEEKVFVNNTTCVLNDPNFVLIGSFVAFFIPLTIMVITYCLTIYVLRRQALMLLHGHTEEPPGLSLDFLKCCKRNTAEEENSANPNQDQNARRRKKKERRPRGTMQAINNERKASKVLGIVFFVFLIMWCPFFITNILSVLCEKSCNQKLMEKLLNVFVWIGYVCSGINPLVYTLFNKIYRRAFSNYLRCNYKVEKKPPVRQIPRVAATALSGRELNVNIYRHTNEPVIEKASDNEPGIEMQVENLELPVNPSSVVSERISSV
Method: as §1, §2
1 nM mesulergine for serotonin 5-HT2C receptor.
as §3

Adrenergic α1 receptor = experiment: Competitive binding, prazosin radioligand; parameters: species or system Wistar rat
Method: as §1, §2
0.25 nM prazosin for adrenergic α1 receptor,
as §3

[3] = target: D4.4 type dopamine receptor (Homo sapiens (Human), UniProt P21917); experiment: Competitive binding to D4.4 receptor ([3H]-YM-09151-2); settings: human recombinant receptor in CHO cells, [3H]-YM-09151-2 0.3 nM
D4.4 type dopamine receptor, sequence (P21917 whole entry): as the sequence (P21917 whole entry) above
Method: R-55 (which comprises a 3-hydroxyphenyl moiety) and its isomers L-221 (comprising a 4-hydroxyphenyl moiety) and L-238 (comprising a 2-hydroxyphenyl moiety) were assayed for competitive binding to D2 SHORT and D4.4 type dopamine receptors, in order to assess their efficacy for treating sexual disorders. Both receptor types are expressed as human recombinant proteins in CHO cells, as described, for example, in Jarvis et al. (1973); Van Tol et al. (1991) and Van Tol et al. (1992).
Determination of binding to D4.4 receptor was performed using [^3H]-YM-09151-2 (70-87 Ci/mmol, 0.3 nM), as a radioligand, in the presence of various concentrations of the tested compound. Reactions were carried out in 50 mM TRIS-HCl (pH 7.4) containing 5 mM MgCl2, 5 mM EDTA, 5 mM KCl and 1.5 mM CaCl2, for 60 minutes at 22° C. The reaction was terminated by rapid vacuum filtration onto glass fiber filters. Radioactivity trapped onto the filters was determined (counted) and compared to control values in order to accurately evaluate any interaction of the tested compound(s) with the cloned dopamine D4.4 binding site.

Adrenergic α2 receptor = experiment: Competitive binding, rauwolscine radioligand; parameters: species or system Wistar rat
Method: as §1, §2
0.7 nM rauwolscine for adrenergic α2 receptor,
as §3

[4] = Solubility of R-55 in solvents for transdermal formulation; format: physicochemical
Method: To this effect, a stable oil-in-water emulsion was developed. Various solvents were tested in order to achieve an R-55 concentration of up to 20 mg/gram in the lipid phase of the emulsion, in order to achieve a total concentration of up to 10 mg/gram R-55.
The following organic solvents which are used in transdermal formulations were tested: […]

Serotonin 5-HT1A receptor, sequence (P08908 whole entry): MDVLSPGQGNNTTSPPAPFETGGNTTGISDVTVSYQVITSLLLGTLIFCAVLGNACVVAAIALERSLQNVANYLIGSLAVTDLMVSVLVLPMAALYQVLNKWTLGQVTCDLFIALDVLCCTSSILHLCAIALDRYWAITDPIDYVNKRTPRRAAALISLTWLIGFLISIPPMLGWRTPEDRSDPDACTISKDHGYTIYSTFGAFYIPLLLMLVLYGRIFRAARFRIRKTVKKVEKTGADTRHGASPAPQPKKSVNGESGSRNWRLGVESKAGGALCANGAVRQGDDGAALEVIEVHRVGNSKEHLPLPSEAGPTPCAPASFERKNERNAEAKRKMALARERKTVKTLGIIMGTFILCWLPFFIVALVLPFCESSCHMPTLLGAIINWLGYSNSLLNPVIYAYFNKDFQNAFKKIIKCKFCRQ

- Competitive binding (%) at 5 μM of tested compound [1]: 7%
- Competitive binding (%) at 5 μM of tested compound (CRF1 receptor): 3%
- Competitive binding (%) at 5 μM of tested compound (Dopamine D4.4 receptor; Dopamine D4.4 receptor, 5 μM): 31%
- binding affinity to the D4.4 receptor (in words) (Dopamine D4.4 receptor; Table 8): high binding affinity
- Competitive binding (%) at 5 μM of tested compound (Dopamine D2S receptor): 7%
- Competitive binding (%) at 5 μM of tested compound (Dopamine D3 receptor): 5%
- Competitive binding (%) at 5 μM of tested compound [2]: 5%
- Competitive binding (%) at 5 μM of tested compound (Adrenergic α1 receptor): 10%
- pIC50 [3]: 6.30
- Competitive binding (%) at 5 μM of tested compound (Adrenergic α2 receptor): 39%
- solubility of R-55 in propylene glycol ([4]; propylene glycol (PG)): less than 5 mg/gram
- solubility of R-55 in propylene glycol with phosphatidyl choline ([4]; weight ratio of 4:1 PG:PC): 8 mg/gram
Compound: O=c1[nH]c(CN2CCN(c3cccc(O)c3)CC2)nc2ccccc12 [Compound R-55, 2-((4-(3-hydroxyphenyl)piperazin-1-yl)methyl)quinazolin-4-one]

From patent publication US9353067B2, “Heterocyclic compounds and uses thereof in the treatment of sexual disorders” (ATIR Holding S.A., priority 2011, dated 2016)
